This is an account of results in ChEMBL document CHEMBL2177042, “Design, synthesis, and antidiabetic activity of 4-phenoxynicotinamide and 4-phenoxypyrimidine-5-carboxamide derivatives as potent and orally efficacious TGR5 agonists” (J Med Chem, 2012).

What is called AUC(0-t) is the area under the concentration-time curve up to a stated or last time point. Low values mean low exposure, high ones high exposure. As a reminder, the Cmax is the peak of the concentration-time curve. The Tmax is the time at which the peak concentration occurs. The MRT is a mean duration of stay, worked out from the concentration-time curve. One may read the half-life as how long it takes for the measured level to halve. Lower therefore signals rapid decline. What is called AUC(0-inf) is total exposure, with the tail of the curve extrapolated. Lower therefore signals low exposure.

What all share (assay type): ADME, organism-based
Data set [1] is described as follows: AUC (0 to 4.5 hrs) in ICR mouse bile at 50 mg/kg, po. Also noted: time < 4.5 hr, dose 50 mg/kg, route oral.
Data set [2] is described as follows: Cmax in ICR mouse bile at 50 mg/kg, po. Also noted: dose 50 mg/kg, route oral.
Data set [3] can be described thus: Tmax in Sprague-Dawley rat at 5 mg/kg, po. Also noted: dose 5 mg/kg, route oral. To be noted: in vivo.
Data set [4] is described as follows: MRT in Sprague-Dawley rat at 5 mg/kg, po. Also noted: dose 5 mg/kg, route oral. To be noted: in vivo.
Data set [5] can be described thus: Drug level in ICR mouse bile at 50 mg/kg, po after 1 hr. Also noted: dose 50 mg/kg, route oral. The following applies: read-out: Drug uptake.
The nature of data set [6]: AUC (0 to 4.5 hrs) in ICR mouse gall bladder at 50 mg/kg, po. Also noted: time < 4.5 hr, dose 50 mg/kg, route oral.
A short description of data set [7]: Drug level in ICR mouse gall bladder at 50 mg/kg, po after 1 hr. Also noted: dose 50 mg/kg, route oral. To be noted: read-out: Drug uptake.
A short description of data set [8]: Half life in Sprague-Dawley rat at 5 mg/kg, po. The following applies: in vivo. Set-up: dose 5 mg/kg, route oral.
Data set [9] is described as follows: Plasma concentration in ICR mouse at 50 mg/kg, po after 4.5 hrs. Set-up: dose 50 mg/kg, route oral.
Data set [10] can be described thus: Plasma concentration in ICR mouse at 50 mg/kg, po after 2.5 hrs. Also noted: dose 50 mg/kg, route oral.
Data set [11] is described as follows: AUC (0 to t) in Sprague-Dawley rat at 5 mg/kg, po. The following applies: plasma. Set-up: dose 5 mg/kg, route oral.
Data set [12] can be described thus: Drug level in ICR mouse bile at 50 mg/kg, po after 4.5 hrs. Set-up: dose 50 mg/kg, route oral. To be noted: read-out: Drug uptake.
The nature of data set [13]: Drug level in ICR mouse bile at 50 mg/kg, po after 2.5 hrs. Set-up: dose 50 mg/kg, route oral. To be noted: read-out: Drug uptake.
The nature of data set [14]: Drug level in ICR mouse gall bladder at 50 mg/kg, po after 0.5 hrs. Set-up: dose 50 mg/kg, route oral. To be noted: read-out: Drug uptake.
The nature of data set [15]: Drug level in ICR mouse gall bladder at 50 mg/kg, po after 4.5 hrs. Set-up: dose 50 mg/kg, route oral. The following applies: read-out: Drug uptake.
Data set [16] can be described thus: Cmax in Sprague-Dawley rat at 5 mg/kg, po. Set-up: dose 5 mg/kg, route oral. To be noted: in vivo.
Data set [17] in a line: AUC (0 to 4.5 hrs) in ICR mouse plasma at 50 mg/kg, po. Also noted: time < 4.5 hr, dose 50 mg/kg, route oral.
A short description of data set [18]: Cmax in ICR mouse plasma at 50 mg/kg, po. Also noted: dose 50 mg/kg, route oral.
Data set [19] can be described thus: AUC (0 to infinity) in Sprague-Dawley rat at 5 mg/kg, po. Also noted: time infinity, dose 5 mg/kg, route oral. The following applies: plasma.
Data set [20] can be described thus: Drug level in ICR mouse bile at 50 mg/kg, po after 0.5 hrs. Set-up: dose 50 mg/kg, route oral. To be noted: read-out: Drug uptake.
A short description of data set [21]: Plasma concentration in ICR mouse at 50 mg/kg, po after 1 hr. Set-up: dose 50 mg/kg, route oral.
Data set [22] in a line: Drug level in ICR mouse gall bladder at 50 mg/kg, po after 2.5 hrs. Set-up: dose 50 mg/kg, route oral. The following applies: read-out: Drug uptake.
A short description of data set [23]: Plasma concentration in ICR mouse at 50 mg/kg, po after 0.5 hrs. Set-up: dose 50 mg/kg, route oral.
Data set [24] in a line: Cmax in ICR mouse gall bladder at 50 mg/kg, po. Also noted: dose 50 mg/kg, route oral.

On to `Cc1ccc(C)c(Oc2ccncc2C(=O)N2CCN(C3CC3)c3ccccc32)c1`, for which the AUC(0-t) at 4.5 h in data set [1] stood at 3.38 µg·h/mL; in [6], 1.29 µg·h/mL; in data set [17], 3.13 µg·h/mL. The highest concentration (Cmax) in [2] stood at 3.7 µM; in data set [16], 0.056 µg/mL; in data set [18] it was 3.6 µM; in [24], 523 ng/g. Moreover, in data set [3], the Tmax amounted to 0.9 h. This compound also had an MRT in [4] of 2.4 h. Further, the figures for the concentration at 1 h in data set [5], in data set [7] and in data set [21] were 2.1 µM, 393 ng/g and 2.3 µM, respectively. Further, the half-life in data set [8] was 1.5 h. The concentration at 4.5 h in data set [9] turned out to be 0.51 µM; in data set [12] it was 2 µM; in [15], 217 ng/g. Also, the concentration at 2.5 h in data set [10] is 2 µM; in data set [13] it was 2 µM; in data set [22] it was 306 ng/g. Moreover, the AUC(0-t) in data set [11] worked out at 0.147 µg·h/mL. The concentration at 0.5 h is 294 ng/g in data set [14], 1.7 µM in data set [20] and 3.1 µM in data set [23]. The compound also displayed an AUC(0-inf) in data set [19] of 0.155 µg·h/mL.
